Data published in patent US6562806B1, “Pyrrolobenzodiazepines” (Spirogen Limited, priority 1998, dated 2003).
Like-named read-outs stand apart in the source and are kept apart here.

Tests used:
K562 cells = assay: MTT growth inhibition of K562 cells by irradiated aliquots; assay type: cell-based, human
Method: An MTT assay was used to evaluate the ability of aliquots of the activated analogues, which were removed at time intervals, to inhibit the growth of chronic human histiocytic leukaemia K562 cells in culture. Following treatment of cells with a range of drug doses, cells were transferred to 96-well microtitre plates, 10^4 cells per well, 8 wells per sample. Plates were incubated at 37° C. in a humidified atmosphere containing 5% CO2. The assay is based on the ability of viable cells to reduce a yellow soluble tetrazolium salt 3-(4,5-dimethylthiazolyl)-2,5-diphenyltetrazolium bromide (MTT), to an insoluble purple formazan precipitate. Following incubation of the plates for 4 days (to allow control cells to increase 10-fold in number), 20 μL of a 5 mg/mL solution of MTT in phosphate-buffered saline was added to each well and the plates were incubated for a further 5 hours. The plates were then centrifuged for 5 minutes at 300 g and the bulk of the medium was removed from the cell pellet. DMSO (200 μL) was added to each well, and the samples agitated to ensure complete mixing. The optical density was then measured at a wavelength of 550 nm on a Titertek Multiscan ELISA plate reader and expressed as a percentage of the control optical density. For each curve, an IC50 value was read as the dose required to reduce the final optical density to 50% of the control value.

[1] = UVA (365 nm) cleavage of photolabile NVOC group monitored by HPLC; assay type: physicochemical
Method: This experiment involved the irradiation of compound 11, see example 3, in DMF at a concentration of 1 mM using a Stratagene UVA Crosslinker(365 nm). Small aliquots (100 μL) were removed at 30 minutes, 1 hour, 2 hours and 3 hours and the cleavageof the photolabile NVOC group was monitored by HPLC, using a Waters C4, 300 angstrom reversed phase column and a mobile phase of 50% methanol/50% water. Compound 11 has a retention time of 11.25 minutes and upon radiation produced a new peak with a retention time of 8.58 minutes. Authentic benzyl DC-81 has an identical retention time of 8.58 minutes. Complete conversion is achieved by 2 hours of irradiation at 365 nm under the conditions employed.

SW1116 cells = assay: Nitroreductase-activation cytotoxicity, SRB assay, SW1116 cells; assay type: cell-based, human
Method: (§1) Compound 7, synthesized according to example 1, was evaluated in two different cell lines, namely SW1116 and LS174T. Both SW1116 and LS174T are human adenocarcinoma colonic cell lines, which were grown at Charing Cross hospital. The cells, at a concentration of 2500 cells/ml, were plated in 96-well microtitre plates, and were incubated at 37° C. for 1 hour with different concentrations of the prodrug, in the presence or absence of E. coli nitroreductase-monoclonal antibody conjugate in phosphate buffer saline (available from Sigma), and NADH (the co-factor necessary for enzyme function) in DMSO. The cells were then washed and incubated for a further 3 days at 37° C. At the end of this period, the cells were fixed (TCA) and stained. The concentration of the remaining viable cells adhering to the plates was quantified by a sulforhodamine B (SRB) dye. The control sets of cells treated with the prodrug alone were used in order to evaluate the cytotoxicity of the compound prior to enzymatic activation.

[2] = test system: SW1116 and LS174T cell lines; assay: Nitroreductase-activation cytotoxicity, SRB assay, 'same cell lines' (value not assigned to one line); assay type: cell-based, human
Method: as §1

LS174T cells = assay: Nitroreductase-activation cytotoxicity, SRB assay, LS174T cells; assay type: cell-based, human
Method: as §1

A2780 = assay: Ovarian cell line cytotoxicity, SRB, 96 hours; assay type: cell-based; conditions: Homo sapiens; A2780, 96 hours
Method: (§2) Compounds 52 (UP 2073) and the comparative compound 55b (UP2090) were evaluated for their cytotoxic activity in ovarian cell lines by Dr Lloyd R. Kelland's group at The Institute of Cancer Research, Sutton, UK. The five cell lines investigated were SKOV-3, A2780/A2780cisR and CH1/CH1cisR (cisR denotes that the cell line is resistant to cisplatin).
(§3) Single viable cells were seeded in growth medium (160 μL) in 96-well microtitre plates and allowed to attach overnight. The test compounds were then dissolved in DMSO (to give 20 mM drug concentrations) immediately prior to adding the cells in quadruplicate wells. The final drug concentrations in the wells ranged from 100 μM to 2.5 nM as follows:100, 25, 10, 2.5, 1 μM, 250, 100, 25, 10, 2.5 nM (drugs were diluted in growth medium and then 40 μL added to the existing well volume of 160 μL to give final concentrations as above). After 96 hours, the medium was removed and the remaining cells fixed by exposure to 10% trichloroacetic acid on ice for 30 minutes. The wells were then washed 3-4 times with tap water, air dried overnight and treated with 100 μL of sulphorhodamine B (0.4%) dissolved in 1% acetic acid. Staining was allowed to continue for 10-15 minutes, then the wells were washed 3-4 times with 1% acetic acid, air dried and then added to Tris base (100 μL of 10 mM). Plates were then shaken and absorbance readings at […] were determined using a plate reader. The IC50 values were calculated from plots of concentration versus percentage absorbance (compared with 8 untreated wells).

SKOV3 = assay: Ovarian cell line cytotoxicity, SRB, 96 hours; assay type: cell-based; conditions: Homo sapiens, SK-OV-3; SKOV3, 96 hours
Method: as §2, §3

CH1 = assay: Ovarian cell line cytotoxicity, SRB, 96 hours; assay type: cell-based; conditions: Homo sapiens; CH1, 96 hours
Method: as §2, §3

A2780cisR = assay: Ovarian cell line cytotoxicity, SRB, 96 hours; assay type: cell-based
Method: as §2, §3

CH1cisR = assay: Ovarian cell line cytotoxicity, SRB, 96 hours; assay type: cell-based
Method: as §2, §3

[3] = LS174T, E. coli nitroreductase-antibody conjugate + NADH, read-out: IC50 in the presence of the enzyme and co-factor
[4] = irradiation time 0 hours, DMF at 1 mM initial drug concentration
[5] = irradiation time 0 hours, DMF at 10 mM initial drug concentration

Compound: 1,1′-[[(Propane-1,3-diyl)dioxy]bis[[2-(2,3-dimethoxy-5-nitrobenzyloxycarboxamido)]bis[(11aS)-7-methoxy-1,2,3,11a-tetrahydro-11-hydroxy-5H-pyrrolo[1,2-c][1,4]benzodiazepine-5-one [Compound 32]
- IC50 (K562 cells; dimer series (FIG. 9), irradiation time 0 hours, footnote DMF at 1 mM, FIG. 9 legend methanol): 4500 nM
- IC50 (K562 cells; dimer series (FIG. 9), irradiation time 0.5 hours, footnote DMF at 1 mM, FIG. 9 legend methanol): 1900 nM
- IC50 (K562 cells; dimer series (FIG. 9), irradiation time 1.0 hours, footnote DMF at 1 mM, FIG. 9 legend methanol): 1750 nM
- IC50 (K562 cells; dimer series (FIG. 9), irradiation time 2.0 hours, footnote DMF at 1 mM, FIG. 9 legend methanol): 1250 nM
- IC50 (K562 cells; dimer series (FIG. 9), irradiation time 5.0 hours, footnote DMF at 1 mM, FIG. 9 legend methanol): 850 nM
- irradiation time to almost complete conversion ([1]; HPLC data (not shown)): ≤ 2 h
- irradiation time to complete conversion ([1]; HPLC data (not shown), dimer prodrug experiments): ≤ 5 h

Compound: COc1cc2c(cc1OCc1ccccc1)N(C(=O)OCc1ccc([N+](=O)[O-])cc1)C(O)[C@@H]1CCCN1C2=O (stereo partly drawn) [Compound 7, (11aS)-8-benzyloxy-7-methoxy-1,2,3,10,11,11a-hexahydro-11-hydroxy-10-(p-nitrobenzyloxy)carboxy-5H-pyrrolo[2,1-c][1,4]-benzodiazepine-5-one]
- IC50 (SW1116 cells; SW1116, E. coli nitroreductase-antibody conjugate + NADH, read-out: IC50 in the presence of the enzyme and co-factor): 1000 to 5000 nM
- toxicity of the prodrug alone (SW1116 cells; SW1116 cells, no enzyme, concentrations of up to 500 μM): essentially non-toxic
- IC50 ([2]; after addition of enzyme conjugate and NADH, cell line not specified, read-out: IC50 of the nitroreductase-activated prodrug): 1000 to 5000 nM
- difference between IC50 of parent drug and nitroreductase-activated prodrug ([2]; parent benzyl DC-81 vs activated prodrug): 20-100 fold
- toxicity of the prodrug alone (LS174T cells; LS174T cells, no enzyme, concentrations higher than 100 μM): slight toxicity
- IC50 (LS174T cells; [3]): 1000 to 5000 nM

Compound: COc1cc(COC(=O)N2c3cc(OCc4ccccc4)c(OC)cc3C(=O)N3CCC[C@H]3C2O)c([N+](=O)[O-])cc1OC (stereo partly drawn) [Compound 11, (11aS)-8-benzyloxy-7-methoxy-1,2,3,10,11,11a-hexahydro-11-hydroxy-10-(21-nitro-4′,5′-dimethoxybenzyloxy)carboxy-5H-pyrrolo[2,1-c][1,4]-benzodiazepine-5-one]
- IC50 (K562 cells; [4]): 47500 nM
- IC50 (K562 cells; [5]): 48500 nM
- IC50 (K562 cells; irradiation time 0.5 hours, DMF at 1 mM initial drug concentration): 980 nM
- IC50 (K562 cells; irradiation time 0.5 hours, DMF at 10 mM initial drug concentration): 4330 nM
- IC50 (K562 cells; irradiation time 0.5 hours, FIG. 8: DMF at 1 mM, text says methanol): 4500 nM
- IC50 (K562 cells; irradiation time 1.0 hours, DMF at 1 mM initial drug concentration): 600 nM
- IC50 (K562 cells; irradiation time 1.0 hours, DMF at 10 mM initial drug concentration): 2170 nM
- IC50 (K562 cells; irradiation time 1.0 hours, FIG. 8: DMF at 1 mM, text says methanol): 4000 nM
- IC50 (K562 cells; irradiation time 2.0 hours, DMF at 1 mM initial drug concentration): 600 nM
- IC50 (K562 cells; irradiation time 2.0 hours, DMF at 10 mM initial drug concentration): 1750 nM
- IC50 (K562 cells; irradiation time 2.0 hours, FIG. 8: DMF at 1 mM, text says methanol): 3200 nM
- irradiation time to complete conversion ([1]; DMF, 1 mM, 365 nm, HPLC): ≤ 2 h

Compound: CC=C1C[C@H]2C(O)N(C(=O)OCc3ccc([N+](=O)[O-])cc3)c3cc(OCc4ccccc4)c(OC)cc3C(=O)N2C1 (stereo partly drawn) [Compound 24, (11aS)-8-benzyloxy-7-methoxy-1,3,10,11,11a-tetrahydro-2-ethylidene-11-hydroxy-10-(p-nitrobenzyloxy)carboxy-5H-pyrrolo[2,1-c][1,4]-benzodiazepine-5-one]
- IC50 ([2]; Homo sapiens, after addition of enzyme conjugate and NADH, cell line not specified, read-out: IC50 of the nitroreductase-activated prodrug): 6400 nM
- IC50 ([2]; Homo sapiens, no enzyme, average of two experiments, cell line not specified, read-out: IC50 of prodrug alone): 86200 nM
- activation factor ([2]; IC50 without / with enzyme conjugate and NADH): approximately 13.5

Compound: COc1cc2c(cc1OCCCOc1cc3c(cc1OC)C(=O)N1CCC[C@H]1C(O)N3C(=O)OCc1ccc([N+](=O)[O-])cc1)N(C(=O)OCc1ccc([N+](=O)[O-])cc1)C(O)[C@@H]1CCCN1C2=O (some centres unmarked) [Compound 30]
- IC50 (LS174T cells; LS174T, no enzyme, average of two measurements, read-out: IC50 of prodrug alone): 215000 nM
- IC50 (LS174T cells; [3]): 13700 nM
- activation factor (LS174T cells; LS174T, IC50 without / with enzyme and co-factor): 15-16 fold

Compound: COc1cc2c(cc1OCCCOc1cc3c(cc1OC)C(=O)N1CCC[C@H]1C=N3)N=C[C@@H]1CCCN1C2=O [DSB-120, reference compound]
- IC50 (K562 cells; Homo sapiens, K562, light or radiation study, dimer series (FIG. 9), irradiation time 0 hours, footnote DMF at 1 mM, FIG. 9 legend methanol): 550 nM
- IC50 (LS174T cells; Homo sapiens, LS174T, read-out: cytotoxicity (IC50) of the parent agent): 0.5 nM

Compound: COc1cc2c(cc1OC)C(=O)N1CCC[C@H]1C=N2 [UP2025]
- IC50 (A2780): 64 nM
- IC50 (SKOV3): 1700 nM
- IC50 (CH1): 82 nM
- RF (resistance factor) (A2780cisR; A2780cisR divided by A2780): 2.4
- IC50 (A2780cisR; Homo sapiens, A2780cisR (cisplatin resistant), 96 hours): 155 nM
- RF (resistance factor) (CH1cisR; CH1cisR divided by CH1): 1.3
- IC50 (CH1cisR; Homo sapiens, CH1cisR (cisplatin resistant), 96 hours): 110 nM

Compound: COc1cc2c(cc1OCc1ccccc1)N=C[C@@H]1CCCN1C2=O [benzyl DC-81, reference compound]
- IC50 (K562 cells; [4]): 500 nM
- IC50 (K562 cells; [5]): 500 nM
- IC50 (K562 cells; irradiation time 0 hours, FIG. 8: DMF at 1 mM, text says methanol): 500 nM
- IC50 ([2]; same cell lines, same conditions, read-out: IC50 of the parent drug): 8 nM
